According to US10596217B2, “Compositions containing a Withania somnifera extract incubated with a filamentous fungus of the Beauvaria genus” (Ethnodyne, priority 2015, dated 2020):
Several values for one entry are separate records, joined by “and”; a condition that tells them apart may be missing. Identical values can stand only once.

Key:
Type in all cases: cell-based, rat
[1] = test system: TH positive dopaminergic neurons of primary mesencephalic culture; test: Neuroprotective effect on TH positive dopaminergic neuron survival following exposure to rotenone; conditions: rotenone 10 nM, 24 hours, toxin alone
Description: (§1) The mesencephalic neurons were cultivated as in preceding example.
(§2) The cells were fixed, washed, permeabilized and non-specific sites were blocked.
(§3) For each condition (6 culture wells), 20 automatically fields per well (representing ˜80% of the total surface of the well) were analyzed. The total number of TH neurons was automatically analyzed using MetaXpress software (Molecular Devices).

[2] = test system: TH positive dopaminergic neurons of primary mesencephalic culture; test: Neuroprotective effect on TH positive dopaminergic neuron survival following exposure to MPP+; conditions: MPP+ 4 μM, 48 h
Description: This study investigated the neuroprotective effect of the plant extract of the invention on rat primary mesencephalic cultures following exposure to 1-methyl-4-phenyl pyridinium (MPP^+).
In such assay, […] (BDNF) was used as standard molecule.
as §1
On day 6 of culture, the medium was removed and fresh medium was added, without or with MPP^+ (Batch 092M4729V, Sigma, France) at 4 μM diluted in control medium. 6 wells per condition were assessed.
as §2
as §3, with “The immunolabeled cultures were automatically examined with ImageXpress (Molecular Devices, United Kingdom) equipped with a LED at ×10 magnification. For” for “For”
Data were expressed in percentage of control conditions (no MPP^+=100%) in order to express the MPP^+ injury. All values were expressed as mean+/−SEM (s.e.mean) of the 6 wells with statistical analyses on the different conditions (ANOVA followed by Dunnett's test when allowed, using GraphPad Prism software). […]

[3] = test system: TH positive dopaminergic neurons of primary mesencephalic culture; test: Neuroprotective effect on TH positive dopaminergic neuron survival following exposure to 6-OHDA; conditions: 6-OHDA 20 μM, 24 h, toxin alone
Description: This study investigated the neuroprotective effect of the plant extract of the invention on rat primary mesencephalic cultures following exposure to 6OHDA. […]
The midbrains were dissociated by trypsinisation for 20 min at 37° C. (Trypsin 0.05%, EDTA 0.02% (Batch 7310713, PanBiotech). The reaction was stopped by the addition of Dulbecco's modified Eagle's medium (DMEM, Batch 9710913, PanBiotech) containing DNAase I grade II (0.1 mg/mL, Batch H131108, PanBiotech) and 10% of foetal calf serum (FCS, Batch 41Q7218K, Gibco). Cells were then mechanically dissociated by 3 passages through a 10 mL pipette. Cells were then centrifuged at 180×g for 10 min at +4° C. on a layer of BSA (3.5%) in L15 medium. The supernatant was discarded and the cell pellets were re-suspended in a defined culture medium consisting of Neurobasal (Batch 1576979, Invitrogen, France) supplemented with 2% of B27 (Batch 1589889, Invitrogen), 2 mM of L-glutamine (Batch 8150713, PanBiotech), 2% of PS solution, 10 ng/mL of Brain-derived neurotrophic factor (Batch H140108, PanBiotech) and 1 ng/mL of Glial-Derived Neurotrophic Factor (Batch H130917, Pan Biotech) Viable cells were counted in a Neubauer cytometer using the trypan blue exclusion test. […]

Molecule: C=C(C)[C@H]1Cc2c(ccc3c2O[C@@H]2COc4cc(OC)c(OC)cc4[C@@H]2C3=O)O1 [Rotenone, rotenone]
- cell death of TH positive neurons induced by the toxin [1]: ~40%

Molecule: C[n+]1ccc(-c2ccccc2)cc1 [MPP^+, 1-methyl-4-phenyl pyridinium]
- cell death of TH positive neurons induced by the toxin ([2]; toxin alone): > 35% and > 30%

Molecule: NCCc1cc(O)c(O)cc1O [Composition 6-OHDA, 6-hydroxydopamine]
- cell death of TH positive neurons induced by the toxin [3]: > 25%

B1: BDNF: Brain Derived Growth Factor (BDNF) used as standard molecule (protein, UniProt P23560 19-247, looked up)
Neurotrophic factor BDNF …: APMKEANIRGQGGLAYPGVRTHGTLESVNGPKAGSRGLTSLADTFEHVIEELLDEDQKVRPNEENNKDADLYTSRVMLSSQVPLEPPLLFLLEEYKNYLDAANMSMRVRRHSDPARRGELSVCDSISEWVTAADKKTAVDMSGGTVTVLEKVPVSKGQLKQYFYETKCNPMGYTKEGCRGIDKRHWNSQCRTTQSYVRALTMDSKKRIGWRFIRIDTSCVCTLTIKRGR
- protection from MPP+ induced injuries ([2]; 50 ng/mL): able to significantly protect cells
